Data as given in article PMC9941834, “Histidine supplementation can escalate or rescue HARS deficiency in a Charcot–Marie–Tooth disease model” (Human Molecular Genetics, 2022).
Substitutions are numbered along the chain they refer to.

Key:
Experiment in all cases: differential scanning fluorimetry (thermal shift)
Assay type in all cases: binding
[1] = molecular target: T1, hsHARS (human histidyl-tRNA synthetase, HARS) (Homo sapiens, UniProt P12081, V155G); settings: 1 μM protein, apo mutant TM 59.8 ± 0.7 °C
T1 construct: gene HARS1; hsHARS gene in pDest527, 6x-His tag, E. coli BL21 Codon Plus, Ni-NTA purified; dimeric protein
T1 sequence (P12081 1-509 V155G): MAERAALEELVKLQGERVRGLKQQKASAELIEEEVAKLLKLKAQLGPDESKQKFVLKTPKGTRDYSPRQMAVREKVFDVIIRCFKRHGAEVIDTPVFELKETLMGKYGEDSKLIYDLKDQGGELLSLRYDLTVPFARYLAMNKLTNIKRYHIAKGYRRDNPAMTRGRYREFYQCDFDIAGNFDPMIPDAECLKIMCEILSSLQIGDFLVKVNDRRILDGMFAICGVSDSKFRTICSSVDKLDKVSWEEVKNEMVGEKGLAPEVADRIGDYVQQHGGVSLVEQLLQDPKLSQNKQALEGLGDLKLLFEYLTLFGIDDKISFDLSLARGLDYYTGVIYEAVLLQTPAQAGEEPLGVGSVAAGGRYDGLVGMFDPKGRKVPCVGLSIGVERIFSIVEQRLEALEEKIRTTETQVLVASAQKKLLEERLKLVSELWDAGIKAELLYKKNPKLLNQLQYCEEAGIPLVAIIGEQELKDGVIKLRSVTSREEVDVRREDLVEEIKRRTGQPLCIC
Source text: (§1) differential scanning fluorimetry (thermal shift) on […]

[2] = molecular target: T2, hsHARS (human histidyl-tRNA synthetase, HARS) (Homo sapiens, UniProt P12081, Y454S); settings: 1 μM protein, apo mutant TM 50 ± 1.8 °C
T2 construct: gene HARS1; hsHARS gene in pDest527, 6x-His tag, E. coli BL21 Codon Plus, Ni-NTA purified; dimeric protein
T2 sequence (P12081 1-509 Y454S): T1 sequence (P12081 1-509 V155G) with G155V, Y454S
Source text: as §1

[3] = molecular target: T3, hsHARS (human histidyl-tRNA synthetase, HARS) (Homo sapiens, UniProt P12081, V133F); settings: 500 μM ATP, 1 μM protein; apo mutant TM 52 ± 1.2 °C
T3 construct: gene HARS1; hsHARS gene in pDest527, 6x-His tag, E. coli BL21 Codon Plus, Ni-NTA purified; dimeric protein
T3 sequence (P12081 1-509 V133F): T1 sequence (P12081 1-509 V155G) with V133F, G155V
Source text: differential scanning fluorimetry (thermal shift) on hsHARS (human histidyl-tRNA synthetase, HARS) | high ATP concentrations increase the thermal stability of HARS V133F to wild-type levels

In the case of N[C@@H](Cc1cnc[nH]1)C(=O)O [histidine], the TM ([1]; 1 mM histidine) is reported as “all substrate supplementations restored wild-type like levels of protein stability” and the TM ([2]; 1 mM histidine) is reported as 57.8 ± 0.8 °C.

Nc1ncnc2c1ncn2[C@@H]1O[C@H](COP(=O)(O)OP(=O)(O)OP(=O)(O)O)[C@@H](O)[C@H]1O [ATP] was tested, and the TM [3] was 63 ± 1.9 °C, the TM ([1]; 500 μM ATP) was “all substrate supplementations restored wild-type like levels of protein stability” and the TM ([2]; 500 μM ATP) was “The addition of tRNA or ATP alone or in combination slightly increased stability”.
